Laboratory results from patent publication US20220375548A1, “FRAGRANCE COMPOSITION TONALITY DETERMINATION METHOD, FRAGRANCE COMPOSITION DETERMINATION METHOD AND CORRESPONDING SYSTEMS” (FIRMENICH SA, priority 2019, published 2022).

Biological target: T1, OR7A17 (Homo sapiens, UniProt O14581)
T1 sequence (O14581 1-309): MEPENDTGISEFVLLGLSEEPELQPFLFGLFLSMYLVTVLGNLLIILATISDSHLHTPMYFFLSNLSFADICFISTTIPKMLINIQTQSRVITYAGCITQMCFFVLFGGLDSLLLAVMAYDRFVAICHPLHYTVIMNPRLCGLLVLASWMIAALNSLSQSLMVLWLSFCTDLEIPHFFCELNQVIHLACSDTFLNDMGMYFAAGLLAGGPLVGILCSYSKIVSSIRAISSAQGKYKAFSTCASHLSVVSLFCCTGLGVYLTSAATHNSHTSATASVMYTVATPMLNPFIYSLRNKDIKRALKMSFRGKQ
Test: odorant receptor activation (Example 3 in U.S. 62/911,096)
Format: cell-based
Settings: associated with blonde woody tonality
Excerpt: Non-limiting examples of an olfactory tonality include earthy, coconut, celery, hay etc. (see Example 1 in U.S. 62/911,096). For example, OR11A1 agonists all share a common earthy tonality even as they elicit an overall set of distinct tonalities (see Example 2 in U.S. 62/911,096). A volatile molecule may have greater than one tonality. For example, beta ionone has violet and blonde woody tonalities arising from the activation of OR5A1 and OR7A17, respectively (see Example 3 in U.S. 62/911,096).
The first relationship may be obtained by putting into contact a sample of volatile molecules with isolated ORs and by monitoring the activity of each said OR. The result of such an experiment may be stored inside a database cross referencing volatile molecule digital identifiers, representative of real volatile molecules, and the impact of said volatile molecule on the ORs monitored during the experiment.
Indicators for monitoring the activity of olfactory receptors include, for example, a fluorescent calcium indicator dye, a calcium indicator protein (e.g. GCaMP, a genetically encoded calcium indicator), a fluorescent cAMP indicator, a cell mobilization assay, a cellular dynamic mass redistribution assay, a label-free cell based assay, a cAMP response element (CRE) mediated reporter protein, a biochemical cAMP HTRF assay, a beta-arrestin assay, or an electrophysiological recording. […]

Question: For `CC(=O)/C=C/C1=C(C)CCCC1(C)C` [beta ionone], which “activation of OR7A17” value is on record?
Answer: activation
